Measurements published in patent US8906826B2, “Herbicidal compositions comprising 4-amino-3-chloro-5-fluoro-6-(4-chloro-2-fluoro-3-methoxyphenyl) pyridine-2-carboxylic acid or a derivative thereof and imidazolinones” (Dow AgroSciences, LLC, priority 2012, dated 2014).

Key:
[1] = test system: IPOHE; assay: Postemergence foliar-applied, direct seeded rice weeds (Example I); assay type: in vivo, Ipomoea hederacea Jacq.
Text: (§1) Seeds or nutlets of the desired test plant species were planted in a soil matrix prepared by mixing a loam or sandy loam soil (e.g., 28.6 percent silt, 18.8 percent clay, and 52.6 percent sand, with a pH of about 5.8 and an organic matter content of about 1.8 percent) and calcareous grit in an 80 to 20 ratio. The soil matrix was contained in plastic pots with a volume of 1 quart and a surface area of 83.6 cm^2. When required to ensure good germination and healthy plants, a fungicide treatment and/or other chemical or physical treatment was applied. The plants were grown for 8-22 days in a greenhouse with an approximate 14 h photoperiod which was maintained at about 29° C. during the day and 26° C. during the night. Nutrients (Peters Excel® 15-5-15 5-Ca 2-Mg and iron chelate) were applied in the irrigation solution as needed and water was added on a regular basis. Supplemental lighting was provided with overhead metal halide 1000-Watt lamps as necessary. The plants were employed for testing when they reached the first through fourth true leaf stage.
(§2) Treatments consisted of the acid or esters of 4-amino-3-chloro-5-fluoro-6-(4-chloro-2-fluoro-3-methoxy-phenyl)pyridine-2-carboxylic acid (Compound A), each formulated as an SC (suspension concentrate), and various herbicidal components alone and in combination. Forms of compound A were applied on an acid equivalent basis.
(§3) Other herbicidal components were applied on an acid equivalent basis and include acetolactate synthase (ALS)-inhibiting herbicides (imidazolinone chemical class) imazethapyr ammonium salt formulated as Newpath®, imazamox ammonium salt formulated as Beyond®, imazapic ammonium salt formulated as Plateau®, imazapyr isopropylamine salt formulated as Arsenal®, imazamethabenz-methyl (technical material) and imazaquin isopropylamine salt formulated as Scepter®/Imagine®.
(§4) Treatment requirements were calculated based upon the rates being tested, the concentration of active ingredient or acid equivalent in the formulation, and a 12 mL application volume at a rate of 187 L/ha.
(§5) For treatments comprised of formulated compounds, measured amounts of compounds were placed individually in 25 mL glass vials and diluted in a volume of 1.25% (v/v) Agri-Dex® crop oil concentrated to obtain 12× stock solutions. […] Application solutions were prepared by adding an appropriate amount of each stock solution (e.g., 1 mL) and diluted to the appropriate final concentrations with the addition of 10 mL of an aqueous mixture of 1.25% (v/v) crop oil concentrate so that the final spray solutions contained 1.25+/−0.05% (v/v) crop oil concentrate.
(§6) For treatments comprised of technical compounds, weighed amounts can be placed individually in 25 mL glass vials and dissolved in a volume of 97:3 v/v acetone/DMSO to obtain 12× stock solutions. […] Application solutions can be prepared by adding an appropriate amount of each stock solution (e.g., 1 mL) and diluted to the appropriate final concentrations with the addition of 10 mL of an aqueous mixture of 1.5% (v/v) crop oil concentrate so that the final spray solutions contain 1.25% (v/v) crop oil concentrate. When technical materials are used, the concentrated stock solutions can be added to the spray solutions so that the final acetone and DMSO concentrations of the application solutions are 16.2% and 0.5%, respectively.
(§7) For treatments comprised of formulated and technical compounds, weighed amounts of the technical materials were placed individually in 25 mL glass vials and dissolved in a volume of 97:3 v/v acetone/DMSO to obtain 12× stock solutions, and measured amounts of the formulated compounds were placed individually in 25 mL glass vials and diluted in a volume of 1.5% (v/v) crop oil concentrate or water to obtain 12× stock solutions. […]

[2] = test system: DIGSA; assay: as above; assay type: in vivo, Digitaria sanguinalis (L.) Scop.; conditions: Compound A n-Butyl Ester 16 gae/ha
Text: as §1, §2, §3, §4
For treatments comprised of formulated compounds, measured amounts of compounds were placed individually in 25 mL glass vials and diluted in a volume of 1.25% (v/v) Agri-Dex® crop oil concentrated to obtain 12× stock solutions. […]
as §7

[3] = test system: CYPIR; assay: as above; assay type: in vivo, Cyperus iria L.
Text: as §1, §2, §3, §4, §5, §6, §7

[4] = test system: CHEAL; assay: Postemergence herbicidal activity in cereal crops, greenhouse (Example V); assay type: in vivo, Chenopodium album L.; conditions: Imazamethabenz-methyl 200 gai/ha
Experimental: (§8) Seeds of the desired test plant species were planted in Sun Gro MetroMix® 306 planting mixture, which typically has a pH of 6.0 to 6.8 and an organic matter content of about 30 percent, in plastic pots with a surface area of 103.2 square centimeters (cm^2). When required to ensure good germination and healthy plants, a fungicide treatment and/or other chemical or physical treatment was applied. The plants were grown for 7-36 days in a greenhouse with an approximate 14 hour photoperiod which was maintained at about 18° C. during the day and about 17° C. during the night. Nutrients and water were added on a regular basis and supplemental lighting was provided with overhead metal halide 1000-Watt lamps as necessary. The plants were employed for testing when they reached the second or third true leaf stage.
(§9) Treatments consisted of the benzyl ester of 4-amino-3-chloro-5-fluoro-6-(4-chloro-2-fluoro-3-methoxy-phenyl)pyridine-2-carboxylic acid (Compound A), formulated as an SC, a second cereal herbicide alone and then both in combination.
(§10) Other herbicidal components were applied on an acid equivalent basis and include acetolactate synthase (ALS)-inhibiting herbicides (imidazolinone chemical class) imazamethabenz-methyl formulated as Assert®. Spray solutions of the second cereal herbicide and experimental compound mixtures were prepared by adding the stock solutions to the appropriate amount of dilution solution to form 12 mL spray solution with active ingredients in two- and three-way combinations. […]
(§11) The treated plants and control plants were placed in a greenhouse as described above and watered by sub-irrigation to prevent wash-off of the test compounds. After 20-22 days, the condition of the test plants as compared with that of the control plants was determined visually and scored on a scale of 0 to 100 percent where 0 corresponds to no injury and 100 corresponds to complete kill. […]

[5] = test system: CIRAR; assay: as above; assay type: in vivo, Cirsium arvense (L.) Scop.; conditions: Imazamethabenz-methyl 200 gai/ha
Experimental: as §8, §9, §10, §11

[6] = test system: PAPRH; assay: as above; assay type: in vivo, Papaver rhoeas L.; conditions: Imazamethabenz-methyl 200 gai/ha
Experimental: as §8, §9, §10, §11

[7] = test system: SASKR; assay: as above; assay type: in vivo, Salsola iberica L.; conditions: Imazamethabenz-methyl 200 gai/ha
Experimental: as §8, §9, §10, §11

[8] = test system: SINAR; assay: as above; assay type: in vivo, Sinapis arvensis L.; conditions: Imazamethabenz-methyl 200 gai/ha
Experimental: as §8, §9, §10, §11

[9] = test system: VERPE; assay: as above; assay type: in vivo, Veronica persica Poir.; conditions: Imazamethabenz-methyl 200 gai/ha
Experimental: as §8, §9, §10, §11

[10] = test system: ECHOR; assay: In-water applied, transplanted paddy rice weeds (Example II); assay type: in vivo, Echinochloa oryzoides (Ard.) Fritsch
Experimental: (§12) Weed seeds or nutlets of the desired test plant species were planted in puddled soil (mud) prepared by mixing a shredded, non-sterilized mineral soil (50.5 percent silt, 25.5 percent clay, and 24 percent sand, with a pH of about 7.6 and an organic matter content of about 2.9 percent) and water at a 1:1 volumetric ratio. The prepared mud was dispensed in 365 mL aliquots into 16-ounce (oz.) non-perforated plastic pots with a surface area of 86.59 square centimeters (cm^2) leaving a headspace of 3 centimeters (cm) in each pot. Mud was allowed to dry overnight prior to planting or transplanting. Rice seeds were planted in Sun Gro MetroMix® 306 planting mixture, which typically has a pH of about 6.0 to about 6.8 and an organic matter content of about 30 percent, in plastic plug trays. Seedlings at the second or third leaf stage of growth were transplanted into 860 mL of mud contained in 32-oz. non-perforated plastic pots with a surface area of 86.59 cm^2 4 days prior to herbicide application. The paddy was created by filling the headspace of the pots with 2.5 to 3 cm of water. When required to ensure good germination and healthy plants, a fungicide treatment and/or other chemical or physical treatment was applied. The plants were grown for 4-22 days in a greenhouse with an approximate 14 h photoperiod which was maintained at about 29° C. during the day and about 26° C. during the night. Nutrients were added as Osmocote® (19:6:12, N:P:K+minor nutrients) at 2 g per 16-oz. pot and 4 g per 32-oz. pot. Water was added on a regular basis to maintain the paddy flood, and supplemental lighting was provided with overhead metal halide 1000-Watt lamps as necessary. The plants were employed for testing when they reached the first through fourth true leaf stage.
Treatments consisted of the acid or esters of 4-amino-3-chloro-5-fluoro-6-(4-chloro-2-fluoro-3-methoxy-phenyl)pyridine-2-carboxylic acid (compound A) each formulated as an SC and various herbicidal components alone and in combination. Forms of compound A were applied on an acid equivalent basis.
Other herbicidal components were applied on an acid equivalent basis and included the acetolactate synthase (ALS)-inhibiting imidazolinone herbicides imazethapyr ammonium salt formulated as Newpath®, imazamox ammonium salt formulated as Beyond®, imazapic ammonium salt formulated as Plateau®, imazapyr isopropylamine salt formulated as Arsenal®, imazamethabenz-methyl (technical material), and imazaquin isopropylamine salt formulated as Scepter®.
(§13) Treatment requirements for each compound or herbicidal component were calculated based upon the rates being tested, the concentration of active ingredient or acid equivalent in the formulation, an application volume of 2 mL per component per pot, and an application area of 86.59 cm^2 per pot.
For formulated compounds, a measured amount was placed in an individual 100 or 200 mL glass vial and was dissolved in a volume of 1.25% (v/v) Agri-Dex® crop oil concentrate to obtain application solutions.
For technical grade compounds, a weighed amount was placed in an individual 100 to 200 mL glass vial and was dissolved in a volume of acetone to obtain concentrated stock solutions. […] The concentrated stock solutions obtained were diluted with an equivalent volume of an aqueous mixture containing 2.5% (v/v) crop oil concentrate so that the final application solutions contained 1.25% (v/v) crop oil concentrate.
Applications were made by injecting with a pipetter appropriate amounts of the application solutions, individually and sequentially, into the aqueous layer of the paddy. Control plants were treated in the same manner with the solvent blank. Applications were made so that all treated plant material received the same concentrations of acetone and crop oil concentrate.
The treated plants and control plants were placed in a greenhouse as described above and water was added as needed to maintain a paddy flood. […]

[11] = test system: CYPRO; assay: as above; assay type: in vivo, Cyperus rotundus L.; conditions: Imazapyr IPA 70 gae/ha
Experimental: as §12, with “Water was added on a regular basis to maintain the paddy flood, and supplemental lighting was provided with overhead metal halide 1000-Watt lamps as necessary. The plants were employed for testing when they reached the first through fourth true leaf stage.” left out
as §13
For formulated compounds, a measured amount was placed in an individual 100 or 200 mL glass vial and was dissolved in a volume of 1.25% (v/v) Agri-Dex® crop oil concentrate to obtain application solutions. […]

## CC(C)C1(C)N=C(c2nc3ccccc3cc2C(=O)O)NC1=O (racemic) [Imazaquin IPA, (±)-2-[4,5-dihydro-4-methyl-4-(1-methylethyl)-5-oxo-1H-imidazol-2-yl]-3-quinolinecarboxylic acid with 2-propanamine, reference compound]
[1]; Imazaquin IPA 9 gae/ha
  Visual Weed Control (%) - 21 DAA IPOHE Obs: 0%
[1]; Imazaquin IPA 18 gae/ha
  Visual Weed Control (%) - 21 DAA IPOHE Obs: 10%
[1]; Imazaquin IPA 36 gae/ha
  Visual Weed Control (%) - 21 DAA IPOHE Obs: 0%

## CCCCOC(=O)c1nc(-c2ccc(Cl)c(OC)c2F)c(F)c(N)c1Cl [Compound A n-Butyl Ester]
[2]
  Visual Weed Control (%) - 20 DAA DIGSA Obs: 15%

## methyl 2-[4,5-dihydro-4-methyl-4-(1-methylethyl)-5-oxo-1H-imidazol-2-yl]-4-methylbenzoic acid or methyl 2-[4,5-dihydro-4-methyl-4-(1-methylethyl)-5-oxo-1H-imidazol-2-yl]-5-methylbenzoic acid or mixtures thereof [Imazamethabenz-methyl, reference compound]
[3]; Imazamethabenz-methyl 43.75 gai/ha
  Visual Weed Control (%) - 22 DAA CYPIR Obs: 0%
[3]; Imazamethabenz-methyl 87.5 gai/ha
  Visual Weed Control (%) - 22 DAA CYPIR Obs: 20%
[3]; Imazamethabenz-methyl 175 gai/ha
  Visual Weed Control (%) - 22 DAA CYPIR Obs: 25%
[4]
  Visual Weed Control (%) - 21 DAA CHEAL Obs: 0%
[5]
  Visual Weed Control (%) - 21 DAA CIRAR Obs: 0%
[6]
  Visual Weed Control (%) - 21 DAA PAPRH Obs: 0%
[7]
  Visual Weed Control (%) - 21 DAA SASKR Obs: 70%
[8]
  Visual Weed Control (%) - 21 DAA SINAR Obs: 70%
[9]
  Visual Weed Control (%) - 21 DAA VERPE Obs: 0%

## CC(C)C1(C)N=C(c2ncccc2C(=O)O)NC1=O (stereo not drawn) [Imazapyr IPA, 2-[4,5-dihydro-4-methyl-4-(1-methylethyl)-5-oxo-1H-imidazol-2-yl]-3-pyridinecarboxylic acid compound with 2-propanamine, reference compound]
[1]; Imazapyr IPA 4.38 gae/ha
  Visual Weed Control (%) - 21 DAA IPOHE Obs: 50%
[1]; Imazapyr IPA 8.75 gae/ha
  Visual Weed Control (%) - 21 DAA IPOHE Obs: 40%
[10]; Imazapyr IPA 70 gae/ha
  Visual Weed Control (%) - 22 DAA ECHOR Obs: 50%
[10]; Imazapyr IPA 140 gae/ha
  Visual Weed Control (%) - 22 DAA ECHOR Obs: 85%
[11]
  Visual Weed Control (%) - 22 DAA CYPRO Obs: 70%
